# Tests used:
# Assay type in all cases: in vivo
# [1] = tested on: harmful plants such as Stellaria media, Lolium multiflorum, Amaranthus retroflexus, Sinapis alba, Avena sativa and Setaria viridis; assay: Pre-emergence effect on weeds (greenhouse pot test, visual scoring); conditions: applied pre-emergence at an application rate of 1 kg or less of active substance per hectare; scored visually after 3 to 4 weeks vs untreated controls
# Source text: 1 Pre-emergence Effect on Weeds
# Seeds or rhizome pieces of monocotyledonous and dicotyledonous weeds plants are placed in sandy loam soil in plastic pots and covered with soil. The compounds according to the invention which are formulated in the form of wettable powders or emulsion concentrates are then applied to the surface of the soil cover in the form of an aqueous suspension or emulsion at an application rate of 600 to 800 l of water/ha (converted), in various dosages.
# [2] = tested on: harmful plants which are typical for rice cultivation, such as Cyperus monti, Echinochloa crus-galli and Sagittaria pygmaea; assay: Effect on harmful plants in rice (paddy rice conditions, visual scoring); conditions: applied into the flooding water, various dosages, scored visually approximately three weeks after application
# Experimental: 3. Effect on Harmful Plants in Rice
# Transplanted and seeded rice and typical broad-leaved and monocotyledonous rice weeds are grown in the greenhouse to the three-leaf stage (Echinochloa crus- galli 1.5 leaf) under paddy rice conditions (depth of the water: 2-3 cm) in sealed plastic pots. They are then treated with the compounds according to the invention. To this end, the formulated active substances are suspended, dissolved or emulsified in water and applied in various dosages by pouring into the water with which the test plants are flooded. After this treatment, the test plants are placed in the greenhouse under ideal growth conditions and kept thus over the entire experimental period.
# Approximately three weeks after application, the test is evalued by means of visually scoring the damage to the plants by comparison with untreated controls.
# [3] = tested on: harmful plants such as Sinapis alba, Echinochloa crus- galli, Lolium multiflorum, Stellaria media, Cyperus iria, Amaranthus retroflexus, Setaria viridis and …; assay: Post-emergence effect on weeds (greenhouse pot test, visual scoring); conditions: applied post-emergence (three-leaf stage) at an application rate of 1 kg and less of active substance per hectare; scored visually after about 3 to 4 weeks vs untreated controls
# Experimental: 2. Post-emergence Effect on Weeds
# Seeds or rhizome pieces of monocotyledonous and dicotyledonous weeds are placed in sandy loam soil in plastic pots, covered with soil and grown in the greenhouse under good growth conditions. Three weeks after sowing, the test plants are treated in the three-leaf stage. The compounds according to the invention which are formulated as wettable powders or as emulsion concentrates are sprayed in various dosages on the green parts of the plants at an application rate of 600 to 800 l of water/ha (converted). After the test plants have remained in the greenhouse for about 3 to 4 weeks under ideal growth conditions, the effect of the preparations is scored visually by comparison with untreated controls. The agents according to the invention also have a good herbicidal post-emergence action against a broad range of economically important grass weeds and dicotyledonous weeds.
Compound,"herbicidal action against harmful plants, pre-emergence [1]",herbicidal action against harmful plants typical for rice cultivation [2],"herbicidal action against harmful plants, post-emergence [3]"
CC(C)c1nc(N)nc(NC(CCc2ccccc2)C2CCC2)n1 (stereo not shown) [Example 4-1],very good herbicidal action,good herbicidal action,very good herbicidal action
"CC(C)(F)c1nc(N)nc(NC(CCc2ccccc2)C2CCC2)n1 (stereo not shown) [Example 4-2, 2-Amino-4-(1-fluoro-1-methylethyl)-6-(3-phenyl-1-cyclobutyl-1-propylamino)-1,3,5-triazine]",very good herbicidal action,good herbicidal action,very good herbicidal action
Cc1cccc(CCC(Nc2nc(N)nc(C(C)C)n2)C2CCC2)c1 (stereo not shown) [Example 4-14],very good herbicidal action,good herbicidal action,very good herbicidal action
Cc1cccc(CCC(Nc2nc(N)nc(C(C)(C)F)n2)C2CCC2)c1 (stereo not shown) [Example 4-15],very good herbicidal action,good herbicidal action,very good herbicidal action
COc1cccc(CCC(Nc2nc(N)nc(C(C)C)n2)C2CCC2)c1 (stereo not shown) [Example 4-23],very good herbicidal action,good herbicidal action,very good herbicidal action
COc1cccc(CCC(Nc2nc(N)nc(C(C)(C)F)n2)C2CCC2)c1 (stereo not shown) [Example 4-24],very good herbicidal action,good herbicidal action,very good herbicidal action
CC(C)(C#N)c1nc(N)nc(NC(CCc2ccccc2)C2CC2)n1 (stereo not shown) [Example 9-4],very good herbicidal action,good herbicidal action,very good herbicidal action
CC(C)(F)c1nc(N)nc(NC(CCc2cccc(F)c2)C2CC2)n1 (stereo not shown) [Example 9-5],very good herbicidal action,good herbicidal action,very good herbicidal action
CC(C)c1nc(N)nc(NC(CCc2cccc(Cl)c2)C2CC2)n1 (stereo not shown) [Example 9-7],very good herbicidal action,good herbicidal action,very good herbicidal action
CC(C)c1nc(N)nc(NC(CCc2ccccc2)C2CC2)n1 (stereo not shown) [Example 9-9],very good herbicidal action,good herbicidal action,very good herbicidal action
CC(C)(F)c1nc(N)nc(NC(CCc2ccccc2)C2CC2)n1 (stereo not shown) [Example 9-10],very good herbicidal action,good herbicidal action,very good herbicidal action
Cc1cccc(CCC(CC2CC2)Nc2nc(N)nc(C(C)C)n2)c1 (stereo not shown) [Example 32-9],very good herbicidal action,,very good herbicidal action
Cc1cccc(CCC(CC2CC2)Nc2nc(N)nc(C(C)(C)F)n2)c1 (stereo not shown) [Example 32-10],very good herbicidal action,,very good herbicidal action
COc1cccc(CCC(CC2CC2)Nc2nc(N)nc(C(C)C)n2)c1 (stereo not shown) [Example 32-11],very good herbicidal action,,very good herbicidal action
COc1cccc(CCC(CC2CC2)Nc2nc(N)nc(C(C)(C)F)n2)c1 (stereo not shown) [Example 32-12],very good herbicidal action,,very good herbicidal action
CC(C)(F)c1nc(N)nc(NC(CCc2ccccc2)CC2CC2(F)F)n1 (stereo not shown) [Example 33-2],very good herbicidal action,,very good herbicidal action
CCc1nc(N)nc(NC(CCc2ccccc2)CC2CC2(F)F)n1 (stereo not shown) [Example 33-4],very good herbicidal action,,very good herbicidal action
CC(C)(F)c1nc(N)nc(NC(C=Cc2ccccc2)C2CC2)n1 (stereo not shown) [Example 44-1],very good herbicidal action,,very good herbicidal action
CC(C)c1nc(N)nc(NC(C=Cc2ccccc2)C2CC2)n1 (stereo not shown) [Example 44-2],very good herbicidal action,,very good herbicidal action
